# Experimental data published in a melting point compilation (Tetko et al.; mined from patent text by program, amines drawn as free bases though some values may be those of a salt).
row,Compound,melting point [°C]
1,Clc1ccc2oc(-c3ccc(N4CCCCC4)cc3)nc2c1,162 to 164
2,O=C(O)c1cn(C2CC2)c2cc(N3CCC3)c(F)cc2c1=O,291 to 294
3,N#Cc1cccc(-n2ccc3ccccc32)c1,33 to 36
4,COc1cccc(Cn2nc3oc(=O)cc(C)c3c2C)c1,148 to 151
5,CCOC(=O)C1=C(C)NC(O)(c2cccc(Cl)c2)C(C(=O)OCC)C1c1cccc([N+](=O)[O-])c1 (stereo not given),212 to 214
6,C#CCn1c(C(F)(F)F)c(C(C)O)sc1=O (racemic),77 to 78
7,CC[C@H](C1CC1)n1cc(Cl)nc(N2CCc3cc(OC)cc(Br)c32)c1=O,138 to 140
8,CN1CCN(c2ccc(Br)c3c2C[C@H](NC(=O)c2ccc(C(F)(F)F)cc2)CC3)CC1,229 to 230
9,COC(=O)COc1ccc(OC)cc1NC(=O)c1ccc(OCCCCc2ccccc2)cc1,91 to 93
10,COC(=O)C1=C(C)NC(C)=C(c2nc(C)no2)C1c1cccc([N+](=O)[O-])c1 (stereo not given),221 to 222
11,CC1CC2CC(Cc3ccc(O)cc3)CCC2NC1=O (stereo not given),217 to 223
12,CCCCCN1C(=O)C2(COc3cc4c(cc32)OCO4)c2ccccc21 (stereo not given),85 to 87
13,CCNC(=S)NC1CC(C)(C)NC(C)(C)C1,134
14,O=C(NC(NC(=S)Nc1ccccc1F)C(F)(F)F)c1ccc(Cl)cc1 (stereo not given),197 to 200
15,CC(C)n1nc(-c2cc(NC(=O)OC(C)(C)C)cnc2-c2ccccc2)ccc1=O,221 to 223
16,CCOC(=O)C(=Cc1c(C)cc(C)cc1C)C(=O)CCl,85
17,CC(C)OC(=O)c1cc(-n2c(=O)[nH]cc(C#N)c2=O)c(F)cc1Cl,143 to 145
18,COC(=O)N1CCC(CCC(=O)O)CC1,88 to 90
19,O=C1N(Cc2ccccn2)c2ccccc2C12COc1cc3nccnc3cc12 (stereo not given),232 to 233
20,CN=C1c2ccccc2CCc2ccccc21,89 to 90

row,Compound,melting point [°C]
1,CC(=O)Nc1ccc(C(C)=C(Cl)Cl)cc1,164 to 166
2,O=C(O)CCOc1ccc(CNC(=O)C2Cc3ccccc3N2S(=O)(=O)c2ccc(-c3cccc(C(F)(F)F)c3)cc2)cc1 (stereo not given),72
3,CC(=O)NNc1ccc(NC(=S)Nc2ccc(NNC(C)=O)cc2)cc1,234 to 236
4,Cc1c(-c2ccc(O)cc2)n(Cc2ccc(OCCN3CCCCCCC3)cc2)c2ccc(O)cc12,98 to 102
5,CCOC(=O)c1cnc([N+](=O)[O-])n1C,65 to 66
6,CN(C)c1ccc2c(c1)CC(N1CCN(CCN3CCOC3=O)CC1)c1ccccc1S2 (stereo not given),168 to 170
7,CN1Cc2c(-c3noc(CCl)n3)ncn2-c2ccc(F)cc2C1=O,245 to 247
8,CC(C)N(CCN1C(=O)/C(=N/NC(N)=O)c2cc(F)ccc21)C(C)C,158 to 160
9,CC(=O)OCc1cccc([N+](=O)[O-])c1Br,60 to 63
10,CN(CCOc1ccc(CC(Oc2ccc3ccccc3c2)C(=O)O)cc1)c1nc2ccccc2o1 (stereo not given),162 to 164
11,NC(=O)c1nc(-c2cccc(O)c2)nc2c1[nH]c(=O)n2-c1cccc2c1CCCC2,> 250
12,O=C(CN1C(=O)c2ccccc2C1=O)Nc1ccccc1-c1ccccc1,204
13,COc1ccc(COC(C)(C)C(=O)Nc2c(N)n(Cc3ccc(OC)c(OC4CCCC4)c3)c(=S)[nH]c2=O)cc1,172 to 184
14,Cn1nc(-c2ccccc2SCc2ccccc2)oc1=O,137 to 140
15,Cc1cc(C)c2ncc(NC(=O)c3cc(C)c(O)c(C)c3C)c(-c3ccccc3Cl)c2c1,261 to 264
16,CCOC(=O)CN(Cc1cc(F)ccc1[N+](=O)[O-])C(=O)C(F)(F)F,60 to 63
17,Nc1nc(O)cc(CCl)n1,195 to 197
18,CC1=Nc2cc3c(cc2C1(C)C)N=C(C)C3(C)C,190 to 195
19,NC(=O)C1=CN(CCC(=O)NCCc2ccccc2)C=CC1,121 to 123
20,COc1cc(N)c2c(c1)C(=O)CCN2,107 to 110
